Source: ChEMBL document CHEMBL1201862, “PubChem BioAssay data set” (2004)
Active and inactive are the calls of the source.

Assays:
Insulin-degrading enzyme = target: T1, Insulin-degrading enzyme (Homo sapiens, UniProt P14735); assay: activators of endogenous IDE in HEK cells, dose response, cell-based, fluorescence polarization (AID 588439); type: functional
T1 sequence (P14735 whole entry): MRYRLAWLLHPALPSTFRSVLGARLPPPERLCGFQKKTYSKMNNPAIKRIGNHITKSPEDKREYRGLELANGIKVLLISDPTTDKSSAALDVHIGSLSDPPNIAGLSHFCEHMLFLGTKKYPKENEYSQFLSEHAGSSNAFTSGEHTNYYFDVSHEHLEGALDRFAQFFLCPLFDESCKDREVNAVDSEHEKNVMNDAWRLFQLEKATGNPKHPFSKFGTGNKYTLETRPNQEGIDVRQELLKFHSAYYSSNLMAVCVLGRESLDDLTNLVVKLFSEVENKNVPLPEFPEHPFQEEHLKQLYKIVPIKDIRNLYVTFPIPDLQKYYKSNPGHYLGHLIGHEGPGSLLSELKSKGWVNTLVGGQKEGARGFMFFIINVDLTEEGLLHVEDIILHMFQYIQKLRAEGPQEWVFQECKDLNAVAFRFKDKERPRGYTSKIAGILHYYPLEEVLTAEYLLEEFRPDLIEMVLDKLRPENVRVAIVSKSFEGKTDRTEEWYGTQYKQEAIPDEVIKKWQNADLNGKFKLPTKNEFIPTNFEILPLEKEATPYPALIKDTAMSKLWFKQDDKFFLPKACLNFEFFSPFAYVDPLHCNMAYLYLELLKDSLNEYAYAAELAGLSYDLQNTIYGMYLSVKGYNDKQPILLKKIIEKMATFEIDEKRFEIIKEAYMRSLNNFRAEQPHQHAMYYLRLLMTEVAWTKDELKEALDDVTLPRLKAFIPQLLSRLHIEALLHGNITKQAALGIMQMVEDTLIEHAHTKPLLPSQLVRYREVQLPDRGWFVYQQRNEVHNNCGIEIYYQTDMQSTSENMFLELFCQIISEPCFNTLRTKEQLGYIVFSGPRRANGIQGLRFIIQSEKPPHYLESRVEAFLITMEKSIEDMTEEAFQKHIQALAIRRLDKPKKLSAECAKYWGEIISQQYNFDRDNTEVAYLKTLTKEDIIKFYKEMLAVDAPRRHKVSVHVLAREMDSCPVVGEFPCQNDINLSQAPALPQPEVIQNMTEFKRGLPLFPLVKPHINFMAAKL

HEK293 = assay: HEK cell cytotoxicity by LDH release, dose response, cytotoxicity control for IDE activator project, fluorescence, HEK cells (AID 588440); type: functional, cell-based; details: Homo sapiens;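 note: cytotoxicity by LDH release measuring loss of membrane integrity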
Prothrombin = Prothrombin (Bos taurus, UniProt P00735); assay: thrombin inhibition, dose response, biochemical, fluorescence polarization, uHTS hits (AID 602369); type: functional
[1] = target: T2, Tyrosine-protein phosphatase non-receptor type 11 (Homo sapiens, UniProt Q06124); assay: SHP2 phosphatase inhibition, dose response, selectivity assay for STEP inhibitor project, biochemical (AID 602367); type: functional; details: read-out: IC50_Mean
T2 sequence (Q06124 whole entry): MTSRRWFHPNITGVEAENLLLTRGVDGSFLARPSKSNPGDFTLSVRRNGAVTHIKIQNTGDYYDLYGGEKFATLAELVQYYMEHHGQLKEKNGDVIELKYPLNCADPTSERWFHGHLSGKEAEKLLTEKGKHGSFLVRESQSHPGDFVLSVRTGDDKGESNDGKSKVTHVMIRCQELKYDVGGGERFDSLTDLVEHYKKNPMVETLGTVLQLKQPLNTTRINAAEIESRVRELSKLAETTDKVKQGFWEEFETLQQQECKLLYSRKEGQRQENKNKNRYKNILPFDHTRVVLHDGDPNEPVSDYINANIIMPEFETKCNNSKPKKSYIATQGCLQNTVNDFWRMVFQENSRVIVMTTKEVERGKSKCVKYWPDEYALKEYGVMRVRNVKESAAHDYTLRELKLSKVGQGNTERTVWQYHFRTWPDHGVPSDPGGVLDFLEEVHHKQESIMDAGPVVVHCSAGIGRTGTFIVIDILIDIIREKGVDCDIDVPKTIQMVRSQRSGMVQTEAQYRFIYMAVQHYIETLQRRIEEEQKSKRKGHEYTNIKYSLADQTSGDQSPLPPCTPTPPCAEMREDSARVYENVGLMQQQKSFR

[2] = target: Small ubiquitin-related modifier 1 (Homo sapiens, UniProt P63165); assay: inhibitors of SUMO1 partner interactions, dose response, biochemical, FRET (AID 624383); type: functional; details: read-out: IC50_Mean
Chain of Small ubiquitin-related modifier 1 (P63165 whole entry, the tested form may be a part): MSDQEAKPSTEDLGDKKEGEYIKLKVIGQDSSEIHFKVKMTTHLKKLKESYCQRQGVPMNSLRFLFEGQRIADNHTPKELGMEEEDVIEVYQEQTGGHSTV

[3] = target: T3, Carboxy-terminal domain RNA polymerase II polypeptide A small phosphatase 1 (Homo sapiens, UniProt Q9GZU7); assay: inhibitors of CTDSP1, concentration-response testing, biochemical assay, absorbance-based, actives from ultra-high-throughput screening (AID 540297); type: functional
T3 sequence (Q9GZU7 whole entry): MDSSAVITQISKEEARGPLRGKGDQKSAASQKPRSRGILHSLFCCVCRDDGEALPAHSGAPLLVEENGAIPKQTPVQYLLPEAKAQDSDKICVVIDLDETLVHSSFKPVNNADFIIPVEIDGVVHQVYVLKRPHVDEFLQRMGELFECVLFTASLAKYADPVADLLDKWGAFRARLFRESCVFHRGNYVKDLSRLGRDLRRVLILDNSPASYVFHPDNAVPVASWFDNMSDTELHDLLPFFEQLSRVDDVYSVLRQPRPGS

[4] = target: Voltage-dependent T-type calcium channel subunit alpha-1H (Homo sapiens, UniProt O95180); type: functional;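 note: channel activity triggered by adding a high calcium stimulation buffer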
Chain of Voltage-dependent T-type calcium channel subunit alpha-1H (O95180 whole entry): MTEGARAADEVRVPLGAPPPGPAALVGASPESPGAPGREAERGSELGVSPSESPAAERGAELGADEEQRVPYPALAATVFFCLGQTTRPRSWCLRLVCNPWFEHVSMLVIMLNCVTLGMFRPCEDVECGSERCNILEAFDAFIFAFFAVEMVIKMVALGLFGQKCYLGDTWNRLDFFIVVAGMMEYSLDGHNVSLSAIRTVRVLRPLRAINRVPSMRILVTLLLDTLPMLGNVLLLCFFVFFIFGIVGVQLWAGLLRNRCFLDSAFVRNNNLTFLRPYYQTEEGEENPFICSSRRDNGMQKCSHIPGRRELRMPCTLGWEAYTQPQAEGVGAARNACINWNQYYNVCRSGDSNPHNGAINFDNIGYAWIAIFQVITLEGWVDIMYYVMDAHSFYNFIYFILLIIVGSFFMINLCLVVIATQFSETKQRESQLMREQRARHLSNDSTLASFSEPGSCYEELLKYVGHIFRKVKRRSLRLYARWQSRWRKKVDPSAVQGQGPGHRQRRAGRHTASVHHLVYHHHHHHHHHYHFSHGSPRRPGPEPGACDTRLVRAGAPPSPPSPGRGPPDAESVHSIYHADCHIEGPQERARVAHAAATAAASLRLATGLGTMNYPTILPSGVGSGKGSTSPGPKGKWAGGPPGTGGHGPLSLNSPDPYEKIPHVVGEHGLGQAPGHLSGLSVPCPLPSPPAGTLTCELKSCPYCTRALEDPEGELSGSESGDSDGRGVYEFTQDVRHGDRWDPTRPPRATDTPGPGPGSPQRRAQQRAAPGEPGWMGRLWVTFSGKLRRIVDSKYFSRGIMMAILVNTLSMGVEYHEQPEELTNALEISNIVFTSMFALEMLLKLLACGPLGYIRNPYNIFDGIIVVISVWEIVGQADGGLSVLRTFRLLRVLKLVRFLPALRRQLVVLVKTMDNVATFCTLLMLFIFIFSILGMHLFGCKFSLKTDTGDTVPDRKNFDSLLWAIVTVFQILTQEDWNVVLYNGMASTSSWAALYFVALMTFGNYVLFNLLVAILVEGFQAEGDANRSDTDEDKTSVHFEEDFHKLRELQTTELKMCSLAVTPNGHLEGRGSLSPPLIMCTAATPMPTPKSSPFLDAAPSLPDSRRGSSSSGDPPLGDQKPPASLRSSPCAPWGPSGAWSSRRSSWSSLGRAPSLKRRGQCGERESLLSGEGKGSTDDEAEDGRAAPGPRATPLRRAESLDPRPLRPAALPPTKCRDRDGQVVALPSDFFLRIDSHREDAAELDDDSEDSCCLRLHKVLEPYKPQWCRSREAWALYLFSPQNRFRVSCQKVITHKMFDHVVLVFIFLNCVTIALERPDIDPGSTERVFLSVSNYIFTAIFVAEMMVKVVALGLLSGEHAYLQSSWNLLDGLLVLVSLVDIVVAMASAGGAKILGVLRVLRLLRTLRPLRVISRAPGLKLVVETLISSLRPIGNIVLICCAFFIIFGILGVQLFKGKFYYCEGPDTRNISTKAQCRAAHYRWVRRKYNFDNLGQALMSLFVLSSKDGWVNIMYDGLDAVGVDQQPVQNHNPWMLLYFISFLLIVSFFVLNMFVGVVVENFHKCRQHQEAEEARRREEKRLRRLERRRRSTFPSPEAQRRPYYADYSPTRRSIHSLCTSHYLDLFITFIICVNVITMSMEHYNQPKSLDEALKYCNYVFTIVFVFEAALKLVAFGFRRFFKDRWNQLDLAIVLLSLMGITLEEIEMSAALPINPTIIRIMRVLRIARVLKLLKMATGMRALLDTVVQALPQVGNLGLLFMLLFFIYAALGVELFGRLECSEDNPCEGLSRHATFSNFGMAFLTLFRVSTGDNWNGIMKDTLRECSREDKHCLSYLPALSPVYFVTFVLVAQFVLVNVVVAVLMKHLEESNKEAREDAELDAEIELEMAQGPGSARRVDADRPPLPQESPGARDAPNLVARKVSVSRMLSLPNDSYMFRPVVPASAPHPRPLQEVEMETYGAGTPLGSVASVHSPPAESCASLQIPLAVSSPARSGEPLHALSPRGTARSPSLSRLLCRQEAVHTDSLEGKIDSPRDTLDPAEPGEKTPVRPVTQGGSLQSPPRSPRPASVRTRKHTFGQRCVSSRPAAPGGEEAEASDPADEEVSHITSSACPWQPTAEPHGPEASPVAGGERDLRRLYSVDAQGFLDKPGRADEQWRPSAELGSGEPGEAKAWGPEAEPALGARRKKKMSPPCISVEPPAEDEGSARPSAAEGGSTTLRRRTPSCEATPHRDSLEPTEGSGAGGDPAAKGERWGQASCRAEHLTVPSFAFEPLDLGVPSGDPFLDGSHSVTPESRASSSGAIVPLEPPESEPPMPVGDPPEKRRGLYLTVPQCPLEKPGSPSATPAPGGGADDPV

SUMO E1/E2 = SUMO E1/E2 (Homo sapiens, UniProt P63279+Q9UBE0+Q9UBT2); assay: SAR analysis of SUMOylation using HTRF in an in-Vitro dose response assay. [Related pubchem assays (depositor defined):AID2006, AID2011, AID2018, AID2069, AID2658]; type: functional
Chain of SUMO E1/E2 (Q9UBE0 whole entry): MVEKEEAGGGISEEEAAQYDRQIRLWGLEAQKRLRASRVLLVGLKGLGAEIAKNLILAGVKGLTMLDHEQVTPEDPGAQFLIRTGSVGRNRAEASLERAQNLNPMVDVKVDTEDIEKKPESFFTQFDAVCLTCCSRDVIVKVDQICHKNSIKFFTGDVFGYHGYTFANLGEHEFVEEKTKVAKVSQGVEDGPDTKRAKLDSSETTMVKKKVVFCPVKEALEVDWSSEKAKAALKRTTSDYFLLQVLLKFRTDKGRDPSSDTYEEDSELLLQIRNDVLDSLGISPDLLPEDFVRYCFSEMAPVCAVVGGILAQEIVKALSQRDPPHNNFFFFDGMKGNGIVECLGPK
Chain of SUMO E1/E2 (Q9UBT2 whole entry): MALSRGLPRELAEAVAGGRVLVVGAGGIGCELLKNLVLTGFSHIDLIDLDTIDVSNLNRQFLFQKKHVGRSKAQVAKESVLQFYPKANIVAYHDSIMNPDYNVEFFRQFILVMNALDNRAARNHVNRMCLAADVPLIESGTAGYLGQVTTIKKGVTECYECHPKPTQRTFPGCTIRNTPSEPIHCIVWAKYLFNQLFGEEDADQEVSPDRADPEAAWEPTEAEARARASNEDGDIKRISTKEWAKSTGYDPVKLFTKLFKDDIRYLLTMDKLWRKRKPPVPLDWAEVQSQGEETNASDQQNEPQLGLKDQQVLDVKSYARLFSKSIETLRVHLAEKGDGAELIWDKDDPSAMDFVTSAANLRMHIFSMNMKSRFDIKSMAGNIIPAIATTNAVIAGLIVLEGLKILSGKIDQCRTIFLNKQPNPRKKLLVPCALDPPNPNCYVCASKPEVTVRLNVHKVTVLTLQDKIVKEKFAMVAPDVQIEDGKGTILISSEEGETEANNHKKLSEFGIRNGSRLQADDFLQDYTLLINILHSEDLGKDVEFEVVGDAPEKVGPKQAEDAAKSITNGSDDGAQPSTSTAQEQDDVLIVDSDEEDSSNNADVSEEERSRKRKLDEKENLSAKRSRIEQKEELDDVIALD
Chain of SUMO E1/E2 (P63279 whole entry): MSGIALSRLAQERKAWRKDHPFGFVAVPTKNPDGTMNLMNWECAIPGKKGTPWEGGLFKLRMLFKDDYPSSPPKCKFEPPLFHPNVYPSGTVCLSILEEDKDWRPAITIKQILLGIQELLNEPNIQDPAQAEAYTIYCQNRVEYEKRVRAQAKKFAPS

For O=c1oc2c(O)cccc2cc1-c1nc2ccccc2[nH]1, the EC50 (Insulin-degrading enzyme) was > 54.7 µM (inactive) and the IC50 (HEK293) was > 89.3 µM (inactive).
For CCOC(=O)c1sc2nc3c(SCC(=O)O)cc(C(=O)c4ccccc4O)cn3c(=O)c2c1C, the IC50 (Prothrombin) was 56.6 µM (active), the IC50 [1] was 1.08 µM (active) and the IC50 [2] was 6.2 µM (active). For the same compound, the IC50 [3] was 14.8 µM (active).
For C=CCn1c(NC(=O)c2ccccc2Cl)c(C#N)c2nc3ccccc3nc21, the EC50 [4] was 4.23 µM (active) and the IC50 (SUMO E1/E2) was 15.7 µM (active).
